Patent US20170273985A1, “TRICYCLIC DERIVATIVE” (Sunovion Pharmaceuticals Inc., priority 2014, published 2017)

Target: PDE1B (Homo sapiens, UniProt Q01064)
Test: In vitro HTRF PDE1 inhibition assay (PDE1B)
Type: biochemical
Excerpt: An exemplary procedure for the in vitro Homogenous Time Resolved Fluorescence assay, which can be used to determine the inhibitory action of compounds of the invention toward PDE1 or its isoforms, follows. The HTRF PDE1 assay utilized the HTRF (Homogenous Time Resolved Fluorescence) technology, which is based on the competition between unlabeled cyclic nucleotide and cyclic nucleotide labeled with XL665 for the binding to cyclic nucleotide-specific antibody labeled with cryptate. The HTRF signal is thus inversely proportional to the concentration of cyclic nucleotide being measured. Since phosphodiesterases break down cyclic nucleotides the HTRF signal was used to determine PDE activity. The Cisbio cGMP HTRF assay kit (Cat no: 62GM2PEC) was utilized. Cyclic GMP was diluted to 200 nM in HTRF assay buffer (1 mM CaCl2, 10 mM MgCl2, 10 mM Tris-HCl, 0.1% BSA, pH 7.4). 10 μl of compound or DMSO was diluted in 200 nM cyclic GMP solution and added to wells of a 96 well white plate to give 100 nM cyclic GMP in 1% DMSO final concentration. PDE (1A3, 1B or IC) was diluted to 2× working concentration in HTRF assay buffer with 2 μg/ml calmodulin, and 10 μl was added to initiate the reaction. The plate was then incubated for 45 minutes at 37° C. d2-Labelled cyclic GMP and anti-cGMP cryptate were diluted in 50 mM phosphate buffer, 0.8 M KF, 1% Triton X100, 0.2% BSA, pH 7.0. Following incubation 10 μl d2-cGMP, then 10 μl anti cGMP cryptate were added to each well and the plate was incubated for 45 minutes at room temperature. The plate was then read on Perkin Elmer Victor at 2 different FRET readings ex/emm 340 nm/665 nm and 340 nm/615 nm. Compounds having an IC50 of <1 μM, are denoted as +++. Compounds having an IC50 of 1−10 μM, are denoted as ++. Compounds having an IC50 of 10-100 μM, are denoted as +.

IC50 (Table 25) | IC50 (Table 22) | Compound
< 1 µM | – | CC(C)c1ncc2c(=O)n3c(nn12)N(Cc1ccc(Cl)cn1)CC3 [Example 141]
– | < 1 µM | O=c1c2cnc(C3CCOCC3)n2nc2n1CCN2CCCCCO [Example 108]
– | 1 to 10 µM | N#Cc1ccc(CN2CCCn3c2nn2c(C4CCOCC4)ncc2c3=O)cc1 [Example 61]
< 1 µM | – | COc1cccc(CN2CCn3c2nn2c(C4CCOCC4)ncc2c3=O)c1 [Example 158]
– | < 1 µM | CC(C)c1ncc2c(=O)n3c(nn12)N(CCCCO)CCC3 [Example 105]
– | < 1 µM | CC(C)c1ncc2c(=O)n3c(nn12)N(CCCC(O)CO)CC3 (stereo not shown) [Example 110, 1-(4,5-Dihydroxypentyl)-8-isopropyl-2,3-dihydro-1H,5H-diimidazo[2,1-c:5′,1′-f][1,2,4]triazin-5-one]
– | < 1 µM | CC(C)c1ncc2c(=O)n3c(nn12)N(Cc1cccc(Cl)c1)CCC3 [Example 33]
– | < 1 µM | CC(C)c1ncc2c(=O)n3c(nn12)N(CCc1ccccc1F)CCC3 [Example 43]
– | 1 to 10 µM | CC(C)c1ncc2c(=O)n3c(nn12)N(CCC1CCNCC1)CCC3 [Example 113, 9-Isopropyl-1-[2-(4-piperidinyl)ethyl]-1,2,3,4-tetrahydro-6H-imidazo[5,1-f]pyrimido[2,1-c][1,2,4]triazin-6-one]
– | < 1 µM | CC(C)n1ncc2c(=O)n3c(nc21)N(CC1CCOCC1)CC3 [Example 73]
– | < 1 µM | CC(C)c1ncc2c(=O)n3c(nn12)N(CCCC(O)CO)CCC3 (stereo not shown) [Example 111, 1-(4,5-Dihydroxypentyl)-9-isopropyl-1,2,3,4-tetrahydro-6H-imidazo[51-f]pyrimido[2,1-c][1,2,4]triazin-6-one]
< 1 µM | – | O=c1c2cnc(C3CCOCC3)n2nc2n1CCN2CC1CCC1 [Example 151]
– | < 1 µM | COc1ccccc1CCCN1CCCn2c1nn1c(C(C)C)ncc1c2=O [Example 48]
< 1 µM | – | COC(C)c1ncc2c(=O)n3c(nn12)N(CCC(C)(C)C)CCC3 (stereo not shown) [Example 180]
– | < 1 µM | O=c1c2cnc(C3CCOCC3)n2nc2n1CCCN2CCCc1ccccc1 [Example 63]
– | < 1 µM | CCCCN1CCCn2c1nn1c(C(C)C)ncc1c2=O [Example 17]
– | < 1 µM | CC(C)c1ncc2c(=O)n3c(nn12)N(CCCc1cccnc1)CC3 [Example 12]
< 1 µM | – | CC(C)CN1CCn2c1nn1c(C3CCOCC3)ncc1c2=O [Example 174]
– | 1 to 10 µM | COc1ccc(C2Cn3c(nn4c(C5CCOCC5)ncc4c3=O)N2C)cc1 (stereo not shown) [Example 87]
– | < 1 µM | COCCCCN1CCn2c1nn1c(C(C)C)ncc1c2=O [Example 7]
– | < 1 µM | CC(C)c1ncc2c(=O)n3c(nn12)N(CCCc1ccccc1F)CCC3 [Example 46]
– | < 1 µM | CC(C)c1ncc2c(=O)n3c(nn12)N(CCCCCO)CCC3 [Example 101, 1-(5-Hydroxypentyl)-9-isopropyl-1,2,3,4-tetrahydro-6H-imidazo[5,1-f]pyrimido[2,1-c][1,2,4]triazin-6-one]
< 1 µM | – | CO[C@H]1CC[C@@H](CN2CCCn3c2nn2c(C4CCOCC4)ncc2c3=O)CC1 [Example 194]

IC50 (Table 25) | IC50 (Table 22) | Compound
< 1 µM | – | O=c1c2cnn(C3CCOCC3)c2nc2n1CCN2Cc1ccc(C(F)(F)F)cc1 [Example 209]
– | < 1 µM | CC(C)c1ncc2c(=O)n3c(nn12)N(CCc1ccc(C#N)cc1)CCC3 [Example 38]
– | < 1 µM | CC(C)c1ncc2c(=O)n3c(nn12)N(C)CCC3 [Example 14]
– | < 1 µM | CCCN1c2nn3c(C4CCOCC4)ncc3c(=O)n2CC[C@@H]1c1ccc(Cl)cc1 [Example 71]
< 1 µM | – | CC(C)c1ncc2c(=O)n3c(nn12)N(CC1CCOCC1)CC(C)(C)C3 [Example 199]
– | < 1 µM | CC(C)c1ncc2c(=O)n3c(nn12)N(CCCC1CCOCC1)CCC3 [Example 29]
– | 1 to 10 µM | O=c1c2cnc(C3CCCC3)n2nc2n1CCC(c1ccccc1)C2 (stereo not shown) [Example 134, 3-Cyclopentyl-7-phenyl-8,9-dihydro-6H-imidazo[5,1-f]pyrido[2,1-c][1,2,4]triazin-11(7H)-one]
< 1 µM | – | CC(C)(C)CCN1CCCn2c1nc1c(cnn1C1CCOCC1)c2=O [Example 229]
– | < 1 µM | CC(C)n1ncc2c(=O)n3c(nc21)N(Cc1ccc(-c2cccc(F)n2)cc1)CC3 [Example 76]
< 1 µM | – | O=c1c2cnc(C3CCC3)n2nc2n1CCN2CC1CCOCC1 [Example 143]
– | < 1 µM | CC(C)c1ncc2c(=O)n3c(nn12)N(CCCc1cccc(F)c1)CCC3 [Example 122]
– | < 1 µM | O=c1c2cnc(C3CCOCC3)n2nc2n1CCCN2CCc1ccccc1 [Example 62]
< 1 µM | – | O=c1c2cnc(C3CCOCC3)n2nc2n1CCN2CCC1CC1 [Example 149]
< 1 µM | – | CC1CN(CCCC(F)(F)F)c2nn3c(C4CCOCC4)ncc3c(=O)n2C1 (stereo not shown) [Example 198]
< 1 µM | – | CC(C)c1ncc2c(=O)n3c(nn12)N(CC1CCOCC1)CC(F)(F)C3 [Example 201]
1 to 10 µM | – | Cc1nc(C2CCOCC2)n2nc3n(c(=O)c12)CCN3CCC(C)C [Example 234, 6-Methyl-1-(3-methylbutyl)-8-(tetrahydro-2H-pyran-4-yl)-2,3-dihydro-1H,5H-diimidazo[2,1-c:5′,1′-f][1,2,4]triazin-5-one]
– | < 1 µM | N#Cc1ccc(CCN2CCCn3c2nn2c(C4CCOCC4)ncc2c3=O)cc1 [Example 116, 4-{2-[6-Oxo-9-(tetrahydro-2H-pyran-4-yl)-3,4-dihydro-6H-imidazo[5,1-f]pyrimido[2,1-c][1,2,4]triazin-1(2H)-yl]ethyl}benzonitrile]
– | < 1 µM | CCCN1c2nn3c(C4CCOCC4)ncc3c(=O)n2C[C@@H]1c1ccc(CC)nc1 [Example 90]
– | < 1 µM | CC(C)c1ncc2c(=O)n3c(nn12)OC(c1ccccc1)CC3 (stereo not shown) [Example 126, 9-Isopropyl-2-phenyl-3,4-dihydroimidazo[5,1-f][1,3]oxazino[2,3-c][1,2,4]triazin-6(2H)-one]
– | 1 to 10 µM | CC(C)c1ncc2c(=O)n3c(nn12)N(CC1CCN(C)CC1)CCC3 [Example 112, 9-Isopropyl-1-[(1-methyl-4-piperidinyl)methyl]-1,2,3,4-tetrahydro-6H-imidazo[5,1-f]pyrimido[2,1-c][1,2,4]triazin-6-one]
– | < 1 µM | CCCN1c2nn3c(C4CCOCC4)ncc3c(=O)n2CC1c1ccc(OC)cc1 (racemic) [Example 67]
– | < 1 µM | CC(C)c1ncc2c(=O)n3c(nn12)N(Cc1ccc(C#N)cc1)CCCC3 [Example 52]
– | < 1 µM | N#Cc1cccc(CCCN2CCCn3c2nn2c(C4CCOCC4)ncc2c3=O)c1 [Example 118]

IC50 (Table 25) | IC50 (Table 22) | Compound
1 to 10 µM | – | COC(C)c1ncc2c(=O)n3c(nn12)N(CCCC(F)(F)F)CCC3 (stereo not shown) [Example 181]
< 1 µM | – | CC(C)CN1CCCn2c1nn1c(C3CCOCC3)ncc1c2=O [Example 183]
< 1 µM | – | O=c1c2cnn(C3CCOCC3)c2nc2n1CCN2CCCC(F)(F)F [Example 212]
– | < 1 µM | CC(C)c1ncc2c(=O)n3c(nn12)N(CCCc1ccncc1)CCC3 [Example 39]
– | < 1 µM | CC1CN(Cc2ccc(C#N)cc2)c2nn3c(C(C)C)ncc3c(=O)n2C1 (stereo not shown) [Example 65]
– | < 1 µM | COCCCN1CCn2c1nn1c(C(C)C)ncc1c2=O [Example 6]
– | < 1 µM | N#Cc1ccc(CCCN2CCCn3c2nn2c(C4CCOCC4)ncc2c3=O)cc1 [Example 119]
< 1 µM | – | CC(C)n1ncc2c(=O)n3c(nc21)N(Cc1ccc(C2CCOCC2)cc1)CC3 [Example 204]
< 1 µM | – | O=c1c2cnn(C3CCOCC3)c2nc2n1CCCN2Cc1ccc(-c2ccc(F)cn2)cc1 [Example 221]
1 to 10 µM | – | CO[C@H](C)c1ncc2c(=O)n3c(nn12)N(CCCC(F)(F)F)CC3 [Example 231]
– | < 1 µM | CC(C)CN1CCCn2c1nc1c(cnn1C(C)C)c2=O [Example 77]
– | < 1 µM | CC(C)c1ncnc2c(=O)n3c(nc12)N(Cc1ccc(C#N)cc1)CC3 [Example 82]
– | 1 to 10 µM | CCc1ccc(C2Cn3c(nn4c(C(C)C)ncc4c3=O)N2CC(C)C)cn1 (stereo not shown) [Example 99]
< 1 µM | – | CC(C)n1ncc2c(=O)n3c(nc21)N(Cc1ccc(-c2ccc(F)cn2)cc1)CC3 [Example 205]
– | < 1 µM | O=c1c2cnc(C3CCOCC3)n2nc2n1CCN2CCC1CCCC1 [Example 54]
< 1 µM | – | CC(C)c1ncc2c(=O)n3c(nn12)N(CCc1cccnc1)CC3 [Example 140]
– | < 1 µM | O=c1c2cnc(C3CCOCC3)n2nc2n1CCN2CCc1ccc(F)cc1 [Example 57]
< 1 µM | – | O=c1c2cnc(C3CCOCC3)n2nc2n1CCN2CCOC(F)(F)F [Example 146]
– | < 1 µM | 2-(4-chlorophenyl)-8-isopropyl-2H-imidazo[1,5-f]oxazolo[2,3-c][1,2,4]triazin-5(3H)-one [Example 133]
< 1 µM | – | COc1ccccc1CN1CCn2c1nn1c(C3CCOCC3)ncc1c2=O [Example 150]
– | < 1 µM | CC(C)c1ncc2c(=O)n3c(nn12)N(CCC1CCOCC1)CC3 [Example 4]
